Assay results: patent US11510917B2, “HIF-stabilization and prevention of hyperoxia-induced neonatal lung disease” (CORNELL UNIVERSITY, priority 2016, dated 2022)

Assays:
EPO = experiment: ELISA of serum EPO; assay type: in vivo, mouse
Hep3B cells = experiment: HIF-1α stabilization and EPO expression in cultured hepatoma cells; assay type: cell-based, human
[1] = test system: neonatal mice chronically exposed to hyperoxia; experiment: Oxygen-induced lung injury, lung airspace analysis (chord length Lm); assay type: in vivo, mouse; conditions: for alveolar enlargement, lung histology: 80% O2, 200 mg/kg i.p. intermittent during oxygen supplementation (Example 3); for protection of alveolar size (Lm) against moderate hyperoxia: about 45% O2, 2- and 5-week time points
Text: For this study we utilized a well-defined murine model of CLD using neonatal mice chronically exposed to hyperoxia for 2 weeks followed by normoxia for an additional 3. Timed pregnant mice were monitored hourly. Within hours of birth litters were pooled before being randomly redistributed to the newly delivered mothers. Experiments were begun on newborns at postnatal day 0. Half of the newborn pups were placed in a chamber designed to deliver variable oxygen concentrations (Biospherix Ltd) and set to 80% O2 (HO) and the other half remained in room air (RA) as age-matched controls. Mothers were rotated every 12 hours to prevent death from acute O2 toxicity. Neonatal CD1 mice also referred to as wild-type mice (Charles River), MCD mice (WBB6F1^−W/Wv) and their mast cell competent litter mates WBB6F1-^+/^+ (congenic controls (CC)) (Jackson Laboratories) were exposed to either HO or RA for 2 weeks and then kept in room air (FiO2 of 0.21) an additional 3 weeks for the 5-week time point. Some CD1 mice (HO and RA) were also maintained 18 weeks in room air for the 20-week time point. Survival and weight were monitored daily. All mice (CD1, MCD, and CC) used in this study were healthy at birth and survived until sacrificed. Unless specifically noted as CC or MCD, mouse experiments were performed with CD1 mice.
Oxygen-induced lung injury and lung airspace analysis. A well-defined murine model of CLD, a.k.a. bronchopulmonary dysplasia, using neonatal mice chronically exposed to hyperoxia followed by normoxia was used for our studies. Timed pregnant CD1 mice (Charles River) were monitored hourly. Within hours of birth litters were pooled before being randomly redistributed to the newly delivered mothers. Half of the newborn pups were immediately placed in a chamber designed to deliver variable oxygen concentrations (Biospherix) and set to 80%, 45% or 30% O2 (hyperoxia) and the other half remained in room air. Mothers were rotated every 12 hrs to prevent death from acute O2 toxicity. Newborn pups were exposed to either hyperoxia or room air for 2 weeks. […] Some animals were then kept in room air for an additional 3 weeks or 18 weeks before analysis. Lungs from mice were fixed at a constant inflation pressure of 25 cm H2O in 10% neutral buffered formalin followed by paraffin embedding. Sections (7 μm) were cut and slides of paraffinized tissue sections were deparaffinized, rehydrated, and washed in distilled water. Sections were stained with hematoxylin and eosin to visualize the structure of the lung. The direct method was used for the accurate estimation of the mean linear intercept length (Lm) (chord length) to assess the mean free distance in the alveoli. This method uses a set of random intercepts and calculates Lm from their frequency distribution and provides results on alveolar size distribution and alveolar surface area. […] On average 30-50 non-overlapping 1 mm^2 fields were analyzed for each lung section. Mean chord length of each alveolus (μm) was measured with the areas of approximately 4,000 individual alveoli/mouse measured in sections from room air mice and about 2,000 individual alveoli/mouse were analyzed in lung sections from hyperoxic mice.
The direct method was used for the accurate estimation of the mean linear intercept length (Lm) (chord length) to assess the mean free distance in the alveoli. […] On average 30-50 non-overlapping 1 mm^2fields were analyzed for each lung section and mean chord length of each alveolus (μm) was measured.

HIF-1α = experiment: Western blot of HIF-1α protein in mouse organs; assay type: in vivo
Mast cells = experiment: Mast cell protease (tryptase, chymase) abundance by Western blot; assay type: cell-based; conditions: high oxygen (80%)
Text: FIG. 14. […] Mast cells express tryptase and chymase. […] N=4 separate blots, different samples. Aliquots of purified TA and HMC-1 exosomes were homogenized and the protein amounts determined by Lowry assay. Primary antibodies used were: mouse monoclonal TSG 101 (Santa Cruz sc-7964) at 1:500 dilution, mouse monoclonal Alix (Cell Signaling, 2171) at 1:1000 dilution, rabbit polyclonal CD63 (Santa Cruz, sc-15363) at 1:500 dilution, rabbit polyclonal chymase at a 1:2500 dilution (Abcam, 186417), mouse monoclonal mast cell tryptase (Abcam, ab2378) at 1:3000 dilution, rabbit polyclonal elastase (Abcam, ab68672) at 1:1000 dilution, mouse monoclonal mast cell CPA3 (Abcam, ab72575) at 1:500 dilution, and mouse monoclonal GAPDH (Cell Signaling, 14C10) and β-actin (Cell Signaling, 3700) at 1:100,000 dilution. GAPDH and β-actin were used as loading controls.

lung mast cells = experiment: Lung mast cell number after neonatal hyperoxia; assay type: in vivo, mouse; conditions: 10 mg/kg, 5-week time point
Text: Lungs from mice (CD1, MCD and CC), not undergoing pulmonary function testing, were fixed at a constant inflation pressure of 25 cm H2O in 10% neutral buffered formalin followed by paraffin embedding. Slides with 7 μm sections were deparaffinized, rehydrated, and washed in distilled water. Some sections were stained with hematoxylin and eosin (H&E) to visualize the structure of the lung. Other sections were stained with an antibody (CC10) (Santa Cruz Biotechnology) (1:50 dilution) to detect club cells, a cell type specific to the airways. Analysis on the alveolar space deliberately avoided airways and blood vessels. For each animal, 5 lung sections were analyzed and quantified as cells per mm^2 of lung tissue. Mast cells were detected in fixed tissue using either the glycoprotein avidin, conjugated to the enzyme horseradish peroxidase (HRP) (Vector Laboratories) or toluidine blue, the classic metachromatic stain for mast cells. Conjugated avidin is a well-defined histochemical method for identifying rodent and human mast cells, which express chondroitin sulfate E proteoglycans and heparin proteoglycans, respectively, in the secretory granules, binding specifically to the proteoglycan granules. Non-specific staining of biotin or biotin-like molecules previously reported […]. Deparaffinized sections were exposed to avidin-HRP 1:500. […]

HIF PHD = experiment: luc-ODD luciferase reporter, live imaging and organ lysates; assay type: in vivo, mouse
Experimental: Detection of luc-ODD luciferase reporter in vivo and in vitro. Live imaging of luciferase activity was performed using Bruker Xtreme small animal x-ray, fluorescence bioluminescence imaging system. Luc-ODD mouse pups at 12 days of age (P12) were divided into appropriate experimental groups identified by ear notches and treated according to the experimental design, i.e., various length of pharmacological treatment (0, 3, 9, 24 hrs), or route of administration (intraperitoneal vs subcutaneous for 3 hrs). […] Ten minutes later, pups (in groups of 2 to 4) were placed in an imaging chamber supplied with a heated pad and inhalation cones for oxygen/isofurane mixture. Ventral and dorsal bioluminescent images were collected for 30 sec followed by white light images taken at autoexposure time. Light and luminescent images where then superimposed and quantitatively analyzed using Bruker MI v7 software. Luciferase activity in mouse organs was detected as follows. […] Tissues were placed in Glo Lysis Buffer (Promega), homogenized with disposable plastic pestles fitted to 1.5 mL microtubes on ice and centrifuged at 20,000×g, 4° C., for 15 min. Protein concentrations of tissue extracts were determined using BCA Protein Assay (Thermo Sci), adjusted to 150 ug (retina), 300 ug (kidney, spleen, lung) or 600 ug (brain, liver) per assay reaction by diluting with Glo Lysis Buffer in a total volume of 100 uL and placed in the wells of white opaque 96-well plate. Diluted extracts were then brought to room temperature, mixed with equal volume (100 uL) of ready-to-use luciferase substrate Bright-Glo Luciferase Assay System (Promega) and luminescence was measured immediately by a luminometer/fluorimeter Victor X2 (PerkinElmer).

[2] = test system: neonatal mice chronically exposed to hyperoxia; experiment: Pulmonary function test of lung compliance after neonatal hyperoxia; assay type: in vivo, mouse; conditions: 80% neonatal hyperoxia; intermittent treatment
Experimental: Pulmonary function tests (PFTs) were performed in 5- (CD1, MCD and CC) and 20-week old mice (CD1) post-neonatal HO or RA. Briefly, mice were anaesthetized with pentobarbital (100 mg/kg, intraperitoneal; American Pharmaceutical Partners), tracheostomized and mechanically ventilated at a rate of 150 breaths/min, a tidal volume of 10 ml/kg and positive end-expiratory pressure of 2-3 cm H2O using a computer-controlled animal ventilator (Sireq). The following perturbations were used to assess baseline respiratory mechanics and analyzed using Flexivent software (Sireq). Static lung compliance (Cst) was determined using the Salazar-Knowles equation applied to the plateau pressure measurements obtained between total lung capacity and functional residual capacity. Broadband forced oscillations were applied to determine tissue resistance (R) and Newtonian (airway) resistance (Rn) using a constant phase model. Mice used for measuring pulmonary function were not used for histological analyses.

[3] = kidney and liver, single i.p. injection

SMILES | time of maximal increase in serum erythropoietin (EPO) (EPO; after i.p. injection) | dose of maximal effect, serum EPO as marker of HIF-1 activity (EPO; dose response in the mouse) | increase in serum EPO protein concentration (EPO; i.p. 10 mg/kg, P8 pups) | HIF-1α stabilization and expression of EPO mRNA and protein (Hep3B cells) | alveolar enlargement, lung histology [1] | alveolar size by chord length (Lm) ([1]; 80% O2 first 2 weeks then 3 weeks room air, 10 mg/kg s.c. intermittent, CD1 pups, 5-week time point, 10 mg/kg) | protection of alveolar size (Lm) against moderate hyperoxia ([1]; CD1 pups) | protection of alveolar size (Lm) against moderate hyperoxia ([1]; CD1 pups, listed as RXD) | increase of HIF-1α protein (HIF-1α; liver and kidney) | increase of HIF-1α protein (HIF-1α; spleen, lung, brain, and retina) | hyperoxia-induced tryptase and chymase abundance (Mast cells) | hyperoxia-induced tryptase and chymase abundance (Mast cells; listed as RXD) | lung mast cell increase (lung mast cells; moderate (45%) hyperoxia) | lung mast cell increase (lung mast cells; severe (80%) hyperoxia) | duration of HIF PHD inhibition (HIF PHD; [3]) | half-life of HIF PHD inhibition (HIF PHD; [3]) | organs with highest luminescence (HIF PHD; luc-ODD mouse, ventral and dorsal views, i.p. or s.c. injection) | luciferase activity over baseline (HIF PHD; tissue lysates, liver) | lung compliance [2]
Cc1nc(C(=O)NCC(=O)O)c(O)c2ccc(Oc3ccccc3)cc12 [Roxadustat, N-[(4-hydroxy-1-methyl-7-phenoxyisoquinolin-3-yl)carbonyl]glycine] | 6 h | 10 mg/kg bodyweight | 8 fold | can be recapitulated | reduced | statistically significant normalization in alveolar size | statistically significant normalization in alveolar size | protective | 5-10 fold | two-fold increase | decreases | decreased | prevents the increase in mast cells | prevents the increase in mast cells | at least 24 hours | 48 to 72 h | liver and kidney | 6 fold | 
COC(=O)CNC(=O)C(=O)OC [DMOG, N-(2-Methoxy-2-oxaoacetyl)glycine methyl ester] |  |  |  |  | normalizes alveolar enlargement |  |  |  |  |  |  |  |  |  |  |  |  |  | maintains normal lung compliance
